Measurements from article PMC9782626, “Copper(II) Complexes of 5–Fluoro–Salicylaldehyde: Synthesis, Characterization, Antioxidant Properties, Interaction with DNA and Serum Albumins” (Molecules, 2022).

System: EB–DNA conjugate (CT DNA)
Assay: EB-displacement studies (fluorescence of EB-DNA conjugate)
Format: binding, calf
Settings: for Stern–Volmer constant Ksv (EB–DNA) / ΔΙ/Ιο, percentage of EB–DNA fluorescence quenching: [EB] = 20 µM, [DNA] = 26 µM; for ΔΙ/Ιο, percentage of EB–DNA fluorescence quenching: 592 nm; for EB–DNA quenching constant kq: from KSV with τo = 23 ns; for EB–DNA relative fluorescence emission intensity I/Io remaining (% of initial): λemission = 592 nm, final value, r up to 0.36
Text: EB is a well-known indicator of DNA intercalation, since its insertion in-between adjacent DNA base pairs may lead to the development of effective π–π stacking interactions. A solution containing the EB–DNA adduct presents an intense fluorescence emission band at 592 nm when excited at λex = 540 nm. The addition of a compound intercalating to DNA equally or more tightly than EB into this solution may induce changes to the emission band which are monitored, in order to gain insight into its competition with EB for the DNA intercalation site.
The fluorescence emission spectra of pretreated EB–DNA ([EB] = 20 µM, [DNA] = 26 µM) were recorded in the presence of increasing amounts of the complexes (representatively shown for complex 1 in Figure 6A).
The Stern–Volmer (KSV) constants (Table 6) of the complexes were calculated with the Stern–Volmer equation (Equation (S2)) and Stern–Volmer plots. The KSV values are relatively high (of the […] magnitude), indicating a tight binding to CT DNA. […] The EB–DNA quenching constants (kq) of the compounds (Table 6) were calculated with Equation (S3) (considering τo = 23 ns as the EB–DNA fluorescence lifetime); the kq values are higher than 10^10 M^−1 s^−1 [56], proposing the existence of a static quenching mechanism, which may confirm the interaction with the fluorophore and the displacement of EB. […]
S2Binding studies with CT DNA […]
S2.3 EB -displa cement studie s
The competition of the complexes with EB was investigated by fluorescence emission spectroscopy in order to examine whether the compounds can displace EB from its DNA-EB conjugate. The CT DNA-EB complex was formed by pre-treating 20 μM EB and 26 μM CT DNA in buffer (150 mM NaCl and 15 mM trisodium citrate at pH = 7.0).
The possible displacement of EB by the compounds and su bseq uently t he ir intercalating effect was studied by the stepwise addition of a certain amount of the solution of each […]
compound into the solution of the CT DNA-EB adduct. The solut ions were excited at 540 nm and the emission was monitored from 550-700 nm with λmax= 592- 595 nm and the effe ct of the addition of each compound to the CT-DNA EB solution was recorded. The […]
solution or in the presence of CT DNA or EB under the same experimental conditions (λ ex = 540 nm); therefore, the observed quenching of the EB-DNA solution may be attributed to the displacement of EB from its EB -DNA add uct.
The Stern-Volmer constants (KSV, in M -1) were calculated according by the linear Stern-Volmer equation (eq. S2) [S 4] and the respect ive plots Io/I versus [ compound].
Io =1+ k τ [Q] =1+ K [Q] (eq. S2) […]
where Io and I are the emission intensit ies of the EB-DNA solut ion in the absence and the presence of the compounds , respectively, τo= the average lifetime of the emitting system without the quencher and kq = the quenching constant. Taking τo = 23 ns as the fluorescence lifetime of the EB-DNA adduct [S5], the quenching co nstants (k q, in M -1s-1) of the compounds were calculated according to eq. S3 [S 4]:
S3Albumin -binding studies
In order to investigate if the compounds can bind to carrier proteins like serum albumins, we carried out albumin binding study by tryptophan fluorescence quenching experiments using bo vine serum albumin (BSA, 3 μM) in buffer (containing 15 mM trisodium citrate and 150 mM NaCl at pH 7.0). The quenching of the emission intensity of tryptophan residues of BSA at 343 nm was monitored using the co mpounds as que ncher s with increasing concentration [S4]. The fluo rescence emission spectra of the compounds were also recorded with λex = 295 nm. No fluorescence emission band was recorded and thus it was not related to the compounds . The influence of the inner-filter effect [S6] on the measurements wa s evaluated by equation S4.
Where Icorr = corrected intensity, Imeas = the measured intensity, c = the concentration of the quencher, d = the cuvette (1 cm), ε (λexc ) and ε(λe m) = the ε of the quencher at the excitation […]

SMILES	Stern–Volmer constant Ksv (EB–DNA)	ΔΙ/Ιο, percentage of EB–DNA fluorescence quenching [%]	EB–DNA quenching constant kq	EB–DNA relative fluorescence emission intensity I/Io remaining (% of initial) [%]
O=Cc1cc(F)ccc1[O-].O=[N+]([O-])[O-].[Cu+2].c1cnc2c(c1)ccc1cccnc12 [Complex 4, [Cu(5–F–salo)(phen)(NO3)]]	6.77 (±0.07) × 10^4 M^−1	48.4	2.94 (±0.03) × 10^12 M^−1 s^−1	51.6
O=Cc1cc(F)ccc1[O-].[Cl-].[Cu+2].c1ccc(Nc2ccccn2)nc1 [Complex 2, [Cu(5–F–salo)(bipyam)Cl]]	6.23 (±0.11) × 10^4 M^−1	44.5	2.71 (±0.05) × 10^12 M^−1 s^−1	55.5
CO.Cc1ccc2ccc3ccc(C)nc3c2n1.O=Cc1cc(F)ccc1[O-].[Cl-].[Cu+2] [Complex 3, [Cu(5–F–salo)(neoc)Cl].CH3OH]	3.35 (±0.05) × 10^4 M^−1	49.1	1.46 (±0.02) × 10^12 M^−1 s^−1	50.9
O=Cc1cc(F)ccc1[O-].O=[N+]([O-])[O-].[Cu+2].c1ccc(-c2ccccn2)nc1 [Complex 5, [Cu(5–F–salo)(bipy)(NO3)]]	3.14 (±0.06) × 10^4 M^−1		1.36 (±0.03) × 10^12 M^−1 s^−1	
O=Cc1cc(F)ccc1[O-].O=Cc1cc(F)ccc1[O-].[Cu+2] [Complex 1, [Cu(5–F–salo)2]]	1.56 (±0.02) × 10^5 M^−1	44.8	6.78 (±0.09) × 10^12 M^−1 s^−1	55.2
